# Test results: article PMC4377892, “Gastroprotective Efficacy and Safety Evaluation of Scoparone Derivatives on Experimentally Induced Gastric Lesions in Rodents” (Nutrients, 2015)
# Experiments:
# [1] = test system: HCl/ethanol-induced gastric ulcers; test: HCl/ethanol-induced gastritis in rats; type: in vivo, Sprague-Dawley (S.D.) rats; conditions: HCl/ethanol-induced GU; for ED50: Rattus norvegicus, oral, dose-response, rats, read-out: ED50 (50% protection against GU)
# Description: The male S.D. rats were fasted for 24 h prior to oral dosing with the normal saline (vehicle), rebamipide (a positive control), or test compounds (Figure 1) at a range of doses, which are described in the results. One hour after the treatments, all animals orally received 0.5 mL of a mixture of 0.15 M HCl and 60% ethanol solution. Animals were sacrificed by cervical dislocation 3 h after the administration of HCl/ethanol solution, the stomach was removed and fixed in 4% formalin solution for 1 h, opened along the greater curvature, and photographed using a camera attached to a dissection microscope. Total area (mm^2) of mucosal erosive lesion was measured using Photoshop CS4 Extended (Adobe, San Jose, CA, USA) software. The percentage of ulcer inhibition by test compounds was calculated by the following formula: % protection of ulceration = ((%Uarea vehicle treated ulcer control–%Uarea compound treated)/%Uarea vehicle treated ulcer control) × 100(1) where %Uarea is the percent ulcer area of the total gastric mucosa area. ED50 values (50% protection against GU) were calculated from the dose-response curves of logarithmic plots of each test compound.
# [2] = test system: indomethacin-induced gastric ulcers; test: Indomethacin-induced gastritis in rats; type: in vivo, Sprague-Dawley (S.D.) rats; conditions: for gastroprotective activity (in words): oral 40 mg/kg, indomethacin-induced GU, rats; for GU reversal: stated for both HCl/ethanol- and indomethacin-induced GU
# Description: The male S.D. rats were fasted for 24 h prior to oral dosing with normal saline, rebamipide, or test compounds at a dose of 40 mg/kg body weight. One hour after treatment, all animals orally received 0.5 mL indomethacin solution (80 mg/kg body weight, suspended in 5% sodium bicarbonate). Animals were sacrificed by cervical dislocation 6 h after the administration of indomethacin solution, the stomach was removed and fixed in 2% formalin solution for 30 min, opened along the greater curvature, and photographed using a camera attached to a dissection microscope. Total area (mm^2) of mucosal erosive lesion was measured and the % protection was calculated as described above.
# [3] = target: CYP3A4 (Homo sapiens, UniProt P08684); test: in vitro; conditions: recombinant enzyme
# Description: (§1) The inhibition assays for human cytochrome P450 (CYP) enzyme activities were performed in multiwall plates using CYP2C9 and CYP3A4 screening kits (Invitrogen Co., Carlsbad, CA, USA) according to the manufacturer’s instruction. The test compounds Ketoconazole (a positive inhibition control for CYP3A4) or Sulfaphenazole (a positive inhibition control for CYP2C9) were mixed with each master pre-mix comprising CYP2C9 or CYP3A4 BACULOSOMES® reagent and the regeneration system, which contained glucose-6-phosphate and glucose-6-phosphate dehydrogenase. The mixture was incubated at room temperature for 20 min. Following incubation, a CYP enzyme-specific substrate (Vivid BOMCC) and NADP^+ were added and the mixture was incubated at room temperature for 30 min. The reaction was stopped by the addition of a Stop Reagent (CYP450 isozyme specific inhibitors). CYP activity was evaluated by measuring the fluorescence of the fluorescent metabolite generated from each CYP enzyme-specific substrate. The fluorescence was measured using a fluorescent plate reader at 409 nm (excitation) and 460 nm (emission). All experiments were performed in duplicate, and the results are expressed as percent inhibition.
# [4] = target: CYP2C9 (Homo sapiens, UniProt P11712); test: in vitro
# Description: as §1
# [5] = test system: adherent gastric mucus; test: Measurement of adherent gastric mucus (alcian blue) in HCl/ethanol-treated rats; type: in vivo, Sprague-Dawley (S.D.) rats; conditions: 20 mg/kg body weight oral, 1 h before HCl/ethanol, mean ± SEM n = 6
# Description: The male S.D. rats were fasted for 24 h prior to oral dosing with normal saline, rebamipide, or test compounds at a dose of 20 mg/kg body weight. One hour after the treatments, all animals orally received 0.5 mL of a mixture of 0.15 M HCl and 60% ethanol solution. Animals were sacrificed by cervical dislocation 3 h after the administration of HCl/ethanol solution, the stomach was removed, and parts of the stomach mucosa were rinsed with ice-cold 0.25 M sucrose. Measurement of adherent gastric mucosal mucus was assayed using alcian blue, a dye which stains acid mucosubstances, as previously described. In brief, a 100 mm^2 portion of the glandular region of the stomach was excised with a scalpel, and soaked in 0.1% alcian blue dissolved in 0.16 M of sucrose buffered with 0.05 M sodium acetate (pH 5.8) for 2 h. The unbound dye was removed using two successive washes with 0.25 M sucrose. The dye complex with mucus was extracted using 30% docusate sodium salt for 2 h. After centrifugation at 2600× g for 10 min, the optical density of the alcian blue solution was measured at 620 nm and calculated using the calibration curve. The adherent gastric mucosal mucus was expressed as the amount of the alcian blue (μg/g tissue).
# [6] = test system: ICR mice; test: Acute oral toxicity in mice; type: in vivo; conditions: for Mortality / Relative Organ Weight, Heart / Relative Organ Weight, Kidney / Relative Organ Weight, Liver / Relative Organ Weight, Lung / Relative Organ Weight, Spleen / alteration in body weight vs vehicle control (in words): single oral 1000 mg/kg, 14 days; for Mortality: deaths/animals; for Relative Organ Weight, Heart / Relative Organ Weight, Kidney / Relative Organ Weight, Liver / Relative Organ Weight, Lung / Relative Organ Weight, Spleen: mean ± SEM n = 10; for LD50: oral, Probit method; for alteration in body weight vs vehicle control (in words): male and female ICR mice; for acute toxicity (in words): single oral administration 1000 mg/kg body weight, ICR mice
# Description: Acute toxicity studies were performed both in male and female ICR mice as described previously. Vehicle control and test compound treated groups consisted of 10 animals each. Mice were acclimatized for 7 days before experimentation. Before dosing with test compounds, animals were fasted for 24 h with access to adequate drinking water in cases with wire mesh bottoms, to prevent coprophagy. The treated group received test compounds, and the control group received saline by gavage at a dose of 1000 mg/kg body weight. […] The mortality, body measurements, and behavior were assessed and recorded daily for 14 days after treatment. The macroscopic analyses and weight of vital organs, such as the liver, kidney, spleen, lung, and heart were compared between the animals treated with test compounds and vehicle.
# [7] = single oral dose 40 mg/kg body weight, S.D. rats
# Sequence of CYP2C9 (P11712 whole entry): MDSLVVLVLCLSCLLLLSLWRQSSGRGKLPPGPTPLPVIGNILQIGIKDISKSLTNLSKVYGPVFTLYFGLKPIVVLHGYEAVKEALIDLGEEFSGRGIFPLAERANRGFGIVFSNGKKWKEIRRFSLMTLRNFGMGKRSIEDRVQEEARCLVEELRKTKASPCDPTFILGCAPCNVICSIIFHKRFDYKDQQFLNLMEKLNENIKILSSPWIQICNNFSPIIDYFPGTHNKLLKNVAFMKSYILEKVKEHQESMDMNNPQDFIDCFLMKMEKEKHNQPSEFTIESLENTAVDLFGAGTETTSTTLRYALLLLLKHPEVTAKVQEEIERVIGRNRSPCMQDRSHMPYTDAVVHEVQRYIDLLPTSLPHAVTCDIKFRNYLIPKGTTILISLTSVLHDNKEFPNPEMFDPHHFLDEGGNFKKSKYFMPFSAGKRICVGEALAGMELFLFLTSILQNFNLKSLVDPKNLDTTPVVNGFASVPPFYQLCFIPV
# Sequence of CYP3A4 (P08684 whole entry): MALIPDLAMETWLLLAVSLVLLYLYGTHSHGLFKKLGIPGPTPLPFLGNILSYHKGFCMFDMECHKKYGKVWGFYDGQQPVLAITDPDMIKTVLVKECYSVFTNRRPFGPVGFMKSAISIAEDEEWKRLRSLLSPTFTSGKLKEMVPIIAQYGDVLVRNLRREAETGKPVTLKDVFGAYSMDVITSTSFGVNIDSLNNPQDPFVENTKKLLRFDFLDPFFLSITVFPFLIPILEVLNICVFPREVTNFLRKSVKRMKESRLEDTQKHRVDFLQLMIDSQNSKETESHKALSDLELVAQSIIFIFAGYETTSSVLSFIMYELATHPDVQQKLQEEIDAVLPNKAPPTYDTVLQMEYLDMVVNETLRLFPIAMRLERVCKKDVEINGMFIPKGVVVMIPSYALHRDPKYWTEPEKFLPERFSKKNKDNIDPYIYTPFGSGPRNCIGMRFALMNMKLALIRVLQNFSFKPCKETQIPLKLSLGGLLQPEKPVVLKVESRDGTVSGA
smiles,measurement,setting,value
"COc1cc2ccc(=O)oc2cc1OC [Compound 1, 6,7-dimethoxycoumarin]",ED50,[1],4.21 mg/kg
same,gastroprotective activity (in words),[1]; [7],significantly protected
same,gastroprotective activity (in words),[2],effectively inhibited
same,"inhibition at 30 min, 10 µM",[3],32.7%
same,"inhibition at 30 min, 10 µM",[4]; recombinant enzyme,0%
"COc1cc2oc(=O)ccc2c(OC)c1OC [Compound 2, 5,6,7-Trimethoxycoumarin]",ED50,[1],3.94 mg/kg
same,protection rate (gastric lesion),[1]; [7],90.0%
same,gastroprotective activity (in words),[2],effectively inhibited
same,GU reversal,[2],over 90%
same,Adherent Mucus,[5],1424 ± 83 μg alcian blue/g tissue
same,Mortality,[6]; female mice,0/10
same,"Relative Organ Weight, Heart",[6]; female mice,0.47 ± 0.05 % body weight
same,"Relative Organ Weight, Kidney",[6]; female mice,1.22 ± 0.09 % body weight
same,"Relative Organ Weight, Liver",[6]; female mice,4.21 ± 0.64 % body weight
same,"Relative Organ Weight, Lung",[6]; female mice,0.69 ± 0.07 % body weight
same,"Relative Organ Weight, Spleen",[6]; female mice,0.45 ± 0.09 % body weight
same,Mortality,[6]; male mice,0/10
same,"Relative Organ Weight, Heart",[6]; male mice,0.46 ± 0.07 % body weight
same,"Relative Organ Weight, Kidney",[6]; male mice,1.56 ± 0.05 % body weight
same,"Relative Organ Weight, Liver",[6]; male mice,5.84 ± 0.23 % body weight
same,"Relative Organ Weight, Lung",[6]; male mice,0.68 ± 0.05 % body weight
same,"Relative Organ Weight, Spleen",[6]; male mice,0.36 ± 0.08 % body weight
same,LD50,[6]; female ICR mice,3857 mg/kg body weight
same,LD50,[6]; male ICR mice,3812 mg/kg body weight
same,alteration in body weight vs vehicle control (in words),[6],no significant alteration
same,acute toxicity (in words),[6],no toxicity
same,"inhibition at 30 min, 10 µM",[3],19.1%
same,"inhibition at 30 min, 10 µM","[4]; recombinant CYP2C9 BACULOSOMES, probe Vivid BOMCC",0%
"COc1cc2ccc(=O)oc2c(OC)c1OC [Compound 3, 6,7,8-trimethoxycoumarin]",ED50,[1],2.93 mg/kg
same,protection rate (gastric lesion),[1]; [7],95.8%
same,gastroprotective activity (in words),[2],effectively inhibited
same,GU reversal,[2],over 90%
same,Adherent Mucus,[5],1876 ± 51 μg alcian blue/g tissue
same,Mortality,[6]; female mice,0/10
same,"Relative Organ Weight, Heart",[6]; female mice,0.54 ± 0.05 % body weight
same,"Relative Organ Weight, Kidney",[6]; female mice,1.34 ± 0.05 % body weight
same,"Relative Organ Weight, Liver",[6]; female mice,6.86 ± 0.78 % body weight
same,"Relative Organ Weight, Lung",[6]; female mice,0.79 ± 0.06 % body weight
same,"Relative Organ Weight, Spleen",[6]; female mice,0.48 ± 0.10 % body weight
same,Mortality,[6]; male mice,0/10
same,"Relative Organ Weight, Heart",[6]; male mice,0.50 ± 0.02 % body weight
same,"Relative Organ Weight, Kidney",[6]; male mice,1.58 ± 0.06 % body weight
same,"Relative Organ Weight, Liver",[6]; male mice,4.92 ± 0.24 % body weight
same,"Relative Organ Weight, Lung",[6]; male mice,0.69 ± 0.06 % body weight
same,"Relative Organ Weight, Spleen",[6]; male mice,0.40 ± 0.07 % body weight
same,LD50,[6]; female ICR mice,3500 mg/kg body weight
same,LD50,[6]; male ICR mice,2111 mg/kg body weight
same,alteration in body weight vs vehicle control (in words),[6],no significant alteration
same,acute toxicity (in words),[6],no toxicity
same,"inhibition at 30 min, 10 µM",[3],15.8%
same,"inhibition at 30 min, 10 µM",[4]; recombinant enzyme,0%
"COc1cc2ccc(=O)oc2c2c1OCO2 [Compound 4, 6-methoxy-7,8-methylenedioxycoumarin]",protection rate (gastric lesion),[1]; [7],93.1%
same,gastroprotective activity (in words),[2],equipotent gastroprotective activity that of rebamipide
same,melting point,,220 to 221 °C
"COc1cc2ccc(=O)oc2c2c1OC(OC)O2 (stereo not shown) [Compound 5, 6-Methoxy-7,8-(1-methoxy)methylenedioxycoumarin]",melting point,,202 to 203 °C
"O=c1ccc2cc3c(cc2o1)OCO3 [Compound 6, 6,7-Methylenedioxycomarin]",melting point,,230 to 231 °C
"COC1Oc2cc3ccc(=O)oc3cc2O1 (stereo not shown) [Compound 7, 6,7-(1-Methoxy)methylenedioxycoumarin]",melting point,,205 to 206 °C
"CC(=O)N1CCN(c2ccc(OCC3COC(Cn4ccnc4)(c4ccc(Cl)cc4Cl)O3)cc2)CC1 (stereo not shown) [Ketoconazole, reference compound]","inhibition at 30 min, 20 µM",[3],97.5%
same,"inhibition at 30 min, 20 µM",[4]; recombinant enzyme,0%
"O=C(NC(Cc1cc(=O)[nH]c2ccccc12)C(=O)O)c1ccc(Cl)cc1 (stereo not shown) [Rebamipide, reference compound]",ED50,[1],9.53 mg/kg
same,protection rate (gastric lesion),[1]; [7],57.8%
same,Adherent Mucus,[5],1584 ± 80 μg alcian blue/g tissue
"Nc1ccc(S(=O)(=O)Nc2ccnn2-c2ccccc2)cc1 [Sulfaphenazole, reference compound]","inhibition at 30 min, 20 µM",[3],0%
same,"inhibition at 30 min, 20 µM",[4]; recombinant enzyme,93.4%
